The values that follow come from patent US5459141A, “Compounds 31668P and 31668U, a process for their production and their use” (Hoechst Aktiengesellschaft, priority 1992, dated 1995).

Data set [1] in a line: Cytotoxic / cytostatic activity (general statement). The note with it: in words.
In data set [2] the test system is gram-positive and gram-negative bacteria. Briefly: Antibacterial activity (general statement). The class given is cell-based. The note with it: in words.
The next data set has as its system Pseud. aeruginosa 1771 M. Put plainly: Minimal inhibitory concentration, broth-dilution test. The class given is cell-based. The note with it: Pseudomonas aeruginosa. An excerpt: (§1) The antibacterial activity of 31668P and 31668U as Minimum Inhibitory Concentration values required to inhibit the growth of various bacteria are shown in Table 1.
(§2) Minimal inhibitory concentrations of the anitbiotics 31668P and
(§3) 31668U determined by the broth-dilution tests against selected
(§4) strains of bacteria (microgram per ml)

The subject of another data set is E. coli DC 2. The data set is described as above. The class given is cell-based. The note with it: Escherichia coli, DC2.
Text: as §1, §2, §3, §4

The subject of the next data set is E. coli DC 0. The data set is described as above. The class given is cell-based. As to conditions: Escherichia coli, DC0.
Text: as §1, §2, §3, §4

In another data set the test system is Klebs. spec. 1522 E. Described as above. The note with it: read-out: Minimal inhibitory concentration. It is filed as cell-based.
Text: as §1, §2, §3, §4

The next data set concerns Klebs. spec. 1082E (K-1). Described as above. It is filed as cell-based.
Text: as §1, §2, §3, §4

In the next data set the test system is Saim. typhimurium. The data set is described as above. The class given is cell-based.
Text: as §1, §2, §3, §4

The subject of a further data set is E. coli TEM. Described as above. The class given is cell-based. The note with it: Escherichia coli, read-out: Minimal inhibitory concentration.
Text: as §1, §2, §3, §4

The test system of a further data set is Staph. aureus SG 511. The data set is described as above. The note with it: Staphylococcus aureus, SG511. It is filed as cell-based.
Text: as §1, §2, §3, §4

In another data set the test system is Enterobact. cloacae P 99. The data set is described as above. It is filed as cell-based. The note with it: read-out: Minimal inhibitory concentration.
Text: as §1, §2, §3, §4

The subject of a further data set is E. coli 1507 E. Described as above. It is filed as cell-based. The note with it: Escherichia coli, read-out: Minimal inhibitory concentration.
Text: as §1, §2, §3, §4

Another data set has as its system Strept. pyogenes 77 A. Described as above. The note with it: Streptococcus pyogenes. It is filed as cell-based.
Text: as §1, §2, §3, §4

A further data set has as its system Strept. pyogenes 308 A. Described as above. The class given is cell-based. The note with it: Streptococcus pyogenes.
Text: as §1, §2, §3, §4

The next data set deals with Pseud. aeruginosa 1771. The data set is described as above. The class given is cell-based. The note with it: Pseudomonas aeruginosa.
Text: as §1, §2, §3, §4

The subject of a further data set is Staph. aureus 503. The data set is described as above. The class given is cell-based. As to conditions: Staphylococcus aureus.
Text: as §1, §2, §3, §4

For data set [3], the system named is Pseud. aeruginosa ATCC 9027. The data set is described as above. The class given is cell-based. The note with it: Pseudomonas aeruginosa, ATCC9027.
Text: as §1, §2, §3, §4

Another data set relates to Staph. aureus 285. The description is as above. The class given is cell-based. The note with it: Staphylococcus aureus.
Text: as §1, §2, §3, §4

Another data set deals with Strept. faecium D. The data set is described as above. It is filed as cell-based. As to conditions: Enterococcus faecium.
Text: as §1, §2, §3, §4

The next data set has as its system Pseud. aeruginosa 1592 E. The description is as above. It is filed as cell-based. The note with it: Pseudomonas aeruginosa.
Text: as §1, §2, §3, §4

In data set [4] the test system is Enterobact. cloacae 1321 E. The data set is described as above. The class given is cell-based.
Text: as §1, §2, §3, §4

The next data set deals with E. coli 078. The data set is described as above. It is filed as cell-based. As to conditions: Escherichia coli.
Text: as §1, §2, §3, §4

“Also recorded” adds a separate entry of the source. Read-outs that look alike come from different tables or passages of the source.

Consider `COc1c(C)c(O)c2c(c1O)C(CO)[N+]1=CC3CC4C(C1C2N1CCOC41)N3C` (centres unmarked) [Compound 31668P], for which the “cytotoxic activity / cytostatic effect” value in data set [1] is reported as “cytotoxic activity; also recorded: cytostatic effect”. For the same compound, in [2], the “antibacterial / antibiotic activity” value was “active against a large number of both gram-positive and gram-negative bacteria; also recorded: have an antibiotic activity”. The MIC came to 0.391 µg/mL in the data set on Pseud. aeruginosa 1771 M; 0.195 µg/mL in the data set on E. coli DC 2; 0.781 µg/mL with E. coli DC 0; 0.391 µg/mL in the data set with Klebs. spec. 1522 E (Klebs. spec. 1522 E); 0.391 µg/mL in the data set on Klebs. spec. 1082E (K-1); 0.391 µg/mL in the data set with Saim. typhimurium. Also, the MIC with E. coli TEM is 0.195 µg/mL; in the data set with Staph. aureus SG 511, less than 0.002 µg/mL; in the data set on Enterobact. cloacae P 99 it was 0.195 µg/mL; in the data set with E. coli 1507 E (1507E), 0.195 µg/mL; in the data set on Strept. pyogenes 77 A it was less than 0.002 µg/mL; with Strept. pyogenes 308 A it was less than 0.002 µg/mL. Besides, the MIC in the data set on Pseud. aeruginosa 1771 was 1.56 µg/mL; against Staph. aureus 503 it was less than 0.002 µg/mL; in data set [3], 0.781 µg/mL; in the data set on Staph. aureus 285, less than 0.002 µg/mL; against Strept. faecium D it was 0.025 µg/mL; against Pseud. aeruginosa 1592 E, 0.781 µg/mL. Also, the MIC in data set [4] was found to be 0.098 µg/mL; with E. coli 078 it was 0.049 µg/mL.
With `COC1=C(C)C(=O)C2=C(C1=O)C(CO)[N+]1=CC3CC4C(C1C2N1CCOC41)N3C` (centres unmarked) [Compound 31668U], the “cytotoxic activity / cytostatic effect” value in [1] is “cytotoxic activity; also recorded: cytostatic effect”. Further, in data set [2], the “antibacterial / antibiotic activity” value is “active against a large number of both gram-positive and gram-negative bacteria; also recorded: have an antibiotic activity”. Also, the MIC was 1.56 µg/mL in the data set with Pseud. aeruginosa 1771 M; 0.781 µg/mL with E. coli DC 2; 6.25 µg/mL in the data set on E. coli DC 0; 1.56 µg/mL in the data set with Klebs. spec. 1522 E; 0.781 µg/mL against Klebs. spec. 1082E (K-1); 3.13 µg/mL against Saim. typhimurium. For the same compound, the MIC in the data set with E. coli TEM was 1.56 µg/mL; in the data set with Staph. aureus SG 511, less than 0.002 µg/mL; in the data set with Enterobact. cloacae P 99, 1.56 µg/mL; with E. coli 1507 E (E. coli 1507 E), 3.13 µg/mL; against Strept. pyogenes 77 A it was less than 0.002 µg/mL; with Strept. pyogenes 308 A, less than 0.002 µg/mL. In addition, the MIC with Pseud. aeruginosa 1771 was 12.5 µg/mL; in the data set with Staph. aureus 503 it was less than 0.002 µg/mL; in data set [3] it was 6.25 µg/mL; against Staph. aureus 285 it was less than 0.002 µg/mL; against Strept. faecium D, 0.195 µg/mL; in the data set on Pseud. aeruginosa 1592 E it was 6.25 µg/mL. Further, the MIC (in [4]; against E. coli 078) was 0.195 µg/mL in each case.
